The values that follow come from patent US20030082678A1, “Methods and compositions for regulating body weight in bovine species” (priority 2001, published 2003).

Assay [1] has as its target T1, bovine MC4-R (Bos taurus, UniProt Q9GLJ8).
T1 construct: expressed in transfected cells; host or cells: human embryonic kidney 293 cells (ATCC CRL 1573), transient co-transfection of pcDNA3.1-bMC4R with the pGL2-promoter/CRE luciferase reporter
The experiment in a line: CRE-luciferase reporter assay in human embryonic kidney 293 cells transiently co-transfected with bovine MC4-R. Format: cell-based. Conditions: for Luciferase Activity: 18 hrs, transiently transfected human embryonic kidney 293 cells. Here is the method: The phagemid pBluescript-bMC4-R (10 μg) containing a full-length (1.9 kb) bovine MC4-R cDNA (SEQ ID NO:1) was digested using restriction endonucleases EcoRI (20 units, Gibco-BRL) and XhoI (20 units, Gibco-BRL) at 37° C. for 1 hr following the supplier's instructions. The resulting 1.9 kb bovine MC4-R cDNA fragment was then subcloned into the mammalian cell expression plasmid pcDNA3.1(+) (Invitrogen, Carlsband, Calif.) following standard cloning procedures (Sambrook et al., 1989, Molecular Cloning, A Laboratory Manual, Second Edition, Cold Spring Harbor Laboratory Press). The resulting bovine MC4-R expression plasmid, pcDNA3.1-bMC4R, was then used in conjunction with a reporter plasmid, pGL2-promoter/CRE (cyclic AMP activated transcription binding protein response element), to transiently co-transfect human embryonic kidney 293 cells (ATCC CRL 1573) using the LipofectAMINE PLUS reagent kit (Gibco-BRL, catalog no. 10964-013) following the supplier's instructions.
The pGL2-promoter/CRE plasmid, containing tandem cAMP activated transcription binding protein response elements from the rat somatostatin gene (Vallejo, et al., 1992, J. Biol. Chem. 267(18):12868-12875) and human chorionic gonadotropin (hCG) gene (Deutsch, et al., 1987, J. Biol. Chem. 262(25):12169-12174), was prepared following standard cloning procedures (Sambrook et al., supra). In brief, the plasmid was constructed by inserting a double stranded oligonucleotide linker, CRE-2 (SEQ ID NO:22), containing the rat somatostatin CRE sequence (5′-[…]-3′; SEQ ID NO:20), the human chorionic gonadotropin (hCG) CRE sequence (5′-AAATTGACGTCATGGTAA-3′; SEQ ID NO:21), and MluI and BglII cohesive ends, into the MluI and BglII sites, respectively, of plasmid pGL2-promoter (Promega, Madison, Wis., catalog no. E1631). The CRE-2 linker had the structure:
The CRE-2 oligonuceotide linker was prepared by first synthesizing the CREA and CREB oligonucleotides, including the MluI and BglII cohesive ends, using a DNA synthesizer Model 370 from PE-Biosystems (Foster City, Calif.). […]
(In general: In a reporter assay the amount or activity of a reporter protein is the signal.)

For assay [2], the target named is bovine melanocortin 4 receptor protein (MC4-R) (bovine). Briefly: cell-based or functional assay.

Several values for one entry are separate records, joined by “and”; a condition that tells them apart may be missing. Identical values can stand only once. Ends that are not written are not given here.

T1 sequence (Q9GLJ8 whole entry): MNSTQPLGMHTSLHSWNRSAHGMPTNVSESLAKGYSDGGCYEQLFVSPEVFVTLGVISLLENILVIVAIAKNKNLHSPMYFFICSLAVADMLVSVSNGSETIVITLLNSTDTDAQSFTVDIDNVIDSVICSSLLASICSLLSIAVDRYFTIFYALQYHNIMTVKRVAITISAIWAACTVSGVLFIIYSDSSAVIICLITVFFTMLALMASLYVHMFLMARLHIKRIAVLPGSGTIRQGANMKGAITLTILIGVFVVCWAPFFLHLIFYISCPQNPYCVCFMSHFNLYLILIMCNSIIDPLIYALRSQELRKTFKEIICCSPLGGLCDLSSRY

As for α-MSH, the “Activation of cloned bovine MC4-R expressed in 293 cells” value in assay [1] (human embryonic kidney 293 cells) is given as “activated”. The “Luciferase Activity” value in assay [1] (α-MSH 1 nM) was 24.80 and 26.67; in assay [1] (α-MSH 10 nM), 35.13 and 37.13.
Consider SYSMEHFRWGKPV (peptide, UniProt P01189 138-150, looked up, ends and bridges not checked) [human α-MSH], for which, in assay [2], the Luciferase Activity (CRE-luciferase reporter, 293 cells), 0 nM α-MSH (baseline without ligand) was 8.19 and 7.78; the Luciferase Activity (CRE-luciferase reporter, 293 cells), 1 nM α-MSH is 24.8 and 26.7; the Luciferase Activity (CRE-luciferase reporter, 293 cells), 10 nM α-MSH was 35.1 and 37.1.
